Reference: patent publication US7229996B2, “Rifamycin derivatives” (Cumbre Pharmaceuticals Inc., priority 2004, dated 2007)
Values after ≈ are worked out from the molar mass of the structure shown.

Key:
Test in all cases: MIC by microbroth dilution (NCCLS)
Assay type in all cases: cell-based
[1] = system: Staphylococcus aureus ATCC29213 RpoB^D471Y
Protocol: (§1) Representative compounds were assayed for antimicrobial activity as follows: Minimum Inhibitory Concentrations (MICs) were determined by the microbroth dilution method as per NCCLS guidelines (National Committee for Clinical Laboratory Standards 2000), except that all growth incubations were conducted at 37° C. Bacterial cultures were tested in the following bacteriological media: S. aureus, S. epidermidis, and E. coli in Cation-Adjusted Mueller-Hinton Broth, S. pneumoniae in THY Broth supplemented with 1 mg/mL catalase under 5% CO2 atmosphere, S. pyogenes in THY Broth, E. faecalis in BHI Broth, H. influenzae in BHI Broth supplemented with 0.75 μL of 1 mg/mL NAD and 150 μL of 1 mg/ml hematin per 5 mL, and M. smegmatis in Middlebrook Broth plus ADC Enrichment.
(§2) S. aureus ATCC 29213 RpoB^H481Y is a rifampin-resistant strain with a mutation in RNA polymerase. […] S. aureus ATCC 29213 GyrA^S84LParC^S80F is a quinolone-resistant strain with mutations to both DNA gyrase and topoisomerase IV.

[2] = system: Staphylococcus aureus ATCC29213 RpoB^H481Y
Protocol: as §1, §2

[3] = system: Staphylococcus aureus ATCC29213 GyrA^S84L ParC^S80F; conditions: S. aureus ATCC29213 GyrA^S84L ParC^S80F, FQ-R
Protocol: as §1, §2

[4] = system: Staphylococcus aureus ATCC29213; conditions: S. aureus ATCC29213, Rif-S; Cation-Adjusted Mueller-Hinton Broth, 37° C.
[5] = system: Haemophilus influenzae ATCC10211; conditions: H. influenzae ATCC10211, Rif-S; BHI Broth with NAD and hematin
[6] = system: Escherichia coli ATCC25922; conditions: E. coli ATCC25922, Rif-S; Cation-Adjusted Mueller-Hinton Broth
[7] = system: Enterococcus faecalis ATCC29212; conditions: E. faecalis ATCC29212, Rif-S; BHI Broth
[8] = system: Streptococcus pyogenes ATCC19615; conditions: S. pyogenes ATCC19615, Rif-S; THY Broth
[9] = system: Streptococcus pneumoniae ATCC6303; conditions: S. pneumoniae ATCC6303, Rif-S; THY Broth with catalase, 5% CO2
[10] = system: Staphylococcus epidermidis ATCC 12228; conditions: S. epidermidis ATCC 12228, Rif-S
[11] = Staphylococcus aureus, ATCC29213

CO[C@H]1/C=C/O[C@@]2(C)Oc3c(C)c(O)c4c(O)c(c(/C=N/N5CCN(C)CC5)c(O)c4c3C2=O)NC(=O)/C(C)=C\C=C\[C@H](C)[C@H](O)[C@@H](C)[C@@H](O)[C@@H](C)[C@H](OC(C)=O)[C@@H]1C [Rifampin]
Antimicrobial activity (MIC range) ([1]; S. aureus ATCC29213 RpoB^D471Y, Rif-R): 8 µg/mL | MIC [1, 11]: 8 µg/mL (≈ 9.72 µM) | Antimicrobial activity (MIC range) ([2]; S. aureus ATCC29213 RpoB^H481Y, Rif-R): >64 µg/mL | MIC [2, 11]: > 64 µg/mL | Antimicrobial activity (MIC range) [3]: 0.008 µg/mL | Antimicrobial activity (MIC range) [4]: 0.008 µg/mL | Antimicrobial activity (MIC range) [5]: 0.24 µg/mL | Antimicrobial activity (MIC range) [6]: 16 µg/mL | Antimicrobial activity (MIC range) [7]: 0.98 µg/mL | Antimicrobial activity (MIC range) [8]: 0.013 µg/mL | Antimicrobial activity (MIC range) [9]: 0.061 µg/mL | Antimicrobial activity (MIC range) [10]: 0.03 µg/mL
